From patent US8399459B2, “1,4 oxazines as BACE1 and/or BACE2 inhibitors” (Hoffmann-La Roche Inc., priority 2011, dated 2013)
Structures can show the parent of a compound that is named as a salt.

What was measured:
BACE1 = biological target: T1, BACE1 (Homo sapiens, UniProt P56817); assay: Cellular Aβ-lowering assay (Aβ40 ELISA, HEK293 cells expressing human APP695); type: cell-based; settings: HEK293 cells stably expressing human APP695; Aβ40 in supernatant after 18-20 hrs
T1 construct: Human HEK293 cells which are stably transfected with a vector expressing a cDNA of the human APP wt gene (APP695); endogenous in cells; host or cells: HEK293 (human), stably transfected with human APP695 wt only
Description: Cellular Aβ-Lowering Assay:
Human HEK293 cells which are stably transfected with a vector expressing a cDNA of the human APP wt gene (APP695) were used to assess the potency of the compounds in a cellular assay. The cells were seeded in 96-well microtiter plates in cell culture medium (Iscove, plus 10% (v/v) fetal bovine serum, glutamine, penicillin/streptomycin) to about 80% confluence and the compounds were added at a 10× concentration in 1/10 volume of medium without FCS containing 8% DMSO (final concentration of DMSO was kept at 0.8% v/v). After 18-20 hrs incubation at 37° C. and 5% CO2 in a humidified incubator the culture supernatant was harvested for the determination of Aβ40 concentrations. 96well ELISA plates (e.g., Nunc MaxiSorb) were coated with monoclonal antibody which specifically recognize the C-terminal end of Aβ40 (Brockhaus et al., NeuroReport 9, 1481-1486; 1998). After blocking of non-specific binding sites with e.g. 1% BSA and washing, the culture supernatants were added in suitable dilutions together with a horseradish peroxidase-coupled Aβ detection antibody (e.g., antibody 4G8, Senetek, Maryland Heights, Mo.) and incubated for 5 to 7 hrs. Subsequently the wells of the microtiter plate were washed extensively with Tris-buffered saline containing 0.05% Tween 20 and the assay was developed with tetramethylbenzidine/H2O2 in citric acid buffer. After stopping the reaction with one volume 1 N H2SO4 the reaction was measured in an ELISA reader at 450 nm wavelength. The concentrations of Aβ in the culture supernatants were calculated from a standard curve obtained with known amounts of pure Aβ peptide.

BACE2 = biological target: T2, BACE2 (Rattus norvegicus, UniProt Q6IE75); assay: Assay for BACE inhibition by measuring cellular TMEM27 cleavage (INS-TMEM27 cells, ELISA); type: cell-based; settings: INS-TMEM27 (INS1e-derived) cells; shed TMEM27 by ELISA
T2 construct: endogenous cellular BACE2 in the Ins1e rat cell line; endogenous in cells; host or cells: INS-TMEM27 (INS1e-derived rat cell line with doxycycline-inducible full-length human TMEM27)
T2 sequence (Q6IE75 63-514): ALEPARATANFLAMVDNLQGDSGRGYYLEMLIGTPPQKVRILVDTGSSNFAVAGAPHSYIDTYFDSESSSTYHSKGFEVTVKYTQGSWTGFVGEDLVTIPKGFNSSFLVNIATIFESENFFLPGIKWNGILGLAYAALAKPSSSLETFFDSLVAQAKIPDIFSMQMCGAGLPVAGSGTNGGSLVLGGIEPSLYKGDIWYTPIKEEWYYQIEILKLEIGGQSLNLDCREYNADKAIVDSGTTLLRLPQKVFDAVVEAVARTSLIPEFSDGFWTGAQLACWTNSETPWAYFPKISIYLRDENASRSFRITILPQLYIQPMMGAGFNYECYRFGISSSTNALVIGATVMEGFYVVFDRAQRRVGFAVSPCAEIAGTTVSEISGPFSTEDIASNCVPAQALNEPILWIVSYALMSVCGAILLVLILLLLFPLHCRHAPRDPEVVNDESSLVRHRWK
Excerpt: Assay for BACE Inhibition by Measuring Cellular TMEM27 Cleavage:
The assay uses the principle of inhibition of human TMEM27 cleavage by endogenous cellular BACE2 in the Ins1e rat cell line and shedding from the cell surface into the culture medium, followed by detection in an ELISA assay. Inhibition of BACE2 prevents the cleavage and shedding in a dose-dependent manner.
The stable cell line “INS-TMEM27” represents an INS1e-derived cell line with inducible expression (using the TetOn system) of full-length hTMEM27 in a doxycycline-dependent manner. The cells are cultured throughout the experiment in RPMI1640+Glutamax (Invitrogen) Penicillin/Streptomycin, 10% Fetal bovine serum, […], […], 100 micrograms/ml G418 and 100 microgram/ml hygromycin and are grown inadherent culture at 37° C. in a standard CO2 cell culture incubator.
INS-TMEM27 cells are seeded in 96-well plates. After 2 days in culture, BACE2 inhibitor is added in a range of concentrations as required by the assay and after a further two hours, doxycycline is added to a final concentration of 500 ng/ml. The cells are incubated for a further 46 hours and the supernatant harvested for detection of shed TMEM27.
An ELISA assay (using a pair of mouse anti-human-TMEM27 antibodies, raised against the extracellular domain of TMEM27) is used for detection of TMEM27 in the culture medium. An EC50 for BACE2 inhibition is calculated using the ELISA readout for each inhibitor concentration with standard curve-fitting software such as XLFit for the Excel spreadsheet program.

CYP2D6 = biological target: T3, CYP2D6 (Homo sapiens, UniProt P10635); assay: CYP inhibition assay, human liver microsomes, dextromethorphan O-demethylase; type: in vitro ADME; settings: pooled human liver microsomes, read-out: CYP IC50 2D6
T3 construct: 0.2 mg/ml pooled human liver microsomes; from tissue; host or cells: pooled human liver microsomes
Description: (§1) Inhibition of cytochromes P450 (CYPs) 2C9, 2D6 and 3A4 was assessed using human liver microsomes and CYP-selective substrate metabolism reactions. 50 μl incubations were made up containing (finally) 0.2 mg/ml pooled human liver microsomes, 5 μM substrate (diclofenac for CYP2C9 [4′hydroxylase], dextromethorphan for CYP2D6 [O-demethylase] or midazolam for CYP3A4 [1′hydroxylase]), 0.25 μL DMSO containing test inhibitor and NADPH regenerating system. Test inhibitor concentrations of 50, 16.7, 5.6, 1.9, 0.6 and 0.2 μM were assessed in singlicate. Incubations were prewarmed to 37° C. for 10 minutes before initiation by addition of NADPH regenerating system. Incubations were quenched after 5 minutes (20 minutes for dextromethorphan) by addition of 50 μl cold acetonitrile containing 20 ng/ml 4-OH-diclofenac-13C6, 20 ng/mL dextrorphan-D3 and 20 ng/mL 1-OH-midazolam-D4. Quenched incubates were stored at −20° C. for at least 1 hour before centrifugation (20,000×g, 20 minutes). Supernatants were removed and diluted 1:1 with water prior to analysis using a RapidFire sample injector system and API4000 mass spectrometer. Peak areas for substrate, metabolite and stable-labelled metabolite standard were determined using MS/MS. The peak area ratios between the metabolite generated by the enzymatic reaction and the internal standard were used in subsequent calculations. The percentage of (DMSO) control activity was calculated for each incubate and IC50 values estimated by non-linear regression. Sulfaphenazole, quinidine or ketoconazole were tested in each CYP2C9, CYP2D6 or CYP3A4 inhibition experiment, respectively, to ensure assay sensitivity and reproducibility. (Validated assays for human cytochrome P450 activities, R. L. Walsky and R. S. Obach, Drug Metabolism and Disposition 32: 647-660, 2004. and S. Fowler and H. Zhang, The AAPS Journal, Vol. 10, No. 2, 410-424, 2008.)

CYP3A4 = biological target: T4, CYP3A4 (Homo sapiens, UniProt P08684); assay: CYP inhibition assay, human liver microsomes, midazolam 1′hydroxylase; type: in vitro ADME; settings: pooled human liver microsomes, read-out: CYP IC50 3A4
T4 construct: 0.2 mg/ml pooled human liver microsomes; from tissue; host or cells: pooled human liver microsomes
Description: as §1

CYP2C9 = biological target: T5, CYP2C9 (Homo sapiens, UniProt P11712); assay: CYP inhibition assay, human liver microsomes, diclofenac 4′hydroxylase; type: in vitro ADME; settings: pooled human liver microsomes, read-out: CYP IC50 2C9
T5 construct: 0.2 mg/ml pooled human liver microsomes; from tissue; host or cells: pooled human liver microsomes
Description: as §1

T1 sequence (P56817 46-501): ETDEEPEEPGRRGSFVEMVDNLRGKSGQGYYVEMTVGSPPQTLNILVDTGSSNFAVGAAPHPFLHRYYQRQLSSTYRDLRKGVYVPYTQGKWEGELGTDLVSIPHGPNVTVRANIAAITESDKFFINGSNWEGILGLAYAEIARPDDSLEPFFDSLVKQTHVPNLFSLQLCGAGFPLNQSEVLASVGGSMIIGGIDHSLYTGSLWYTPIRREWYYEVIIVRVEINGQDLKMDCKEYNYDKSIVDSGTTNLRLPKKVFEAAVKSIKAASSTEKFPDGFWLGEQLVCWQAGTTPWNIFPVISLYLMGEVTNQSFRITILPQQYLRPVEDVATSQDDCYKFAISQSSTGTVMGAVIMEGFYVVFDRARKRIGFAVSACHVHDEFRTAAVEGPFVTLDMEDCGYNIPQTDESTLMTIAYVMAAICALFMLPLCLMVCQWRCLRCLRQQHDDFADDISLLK
T4 sequence (P08684 whole entry): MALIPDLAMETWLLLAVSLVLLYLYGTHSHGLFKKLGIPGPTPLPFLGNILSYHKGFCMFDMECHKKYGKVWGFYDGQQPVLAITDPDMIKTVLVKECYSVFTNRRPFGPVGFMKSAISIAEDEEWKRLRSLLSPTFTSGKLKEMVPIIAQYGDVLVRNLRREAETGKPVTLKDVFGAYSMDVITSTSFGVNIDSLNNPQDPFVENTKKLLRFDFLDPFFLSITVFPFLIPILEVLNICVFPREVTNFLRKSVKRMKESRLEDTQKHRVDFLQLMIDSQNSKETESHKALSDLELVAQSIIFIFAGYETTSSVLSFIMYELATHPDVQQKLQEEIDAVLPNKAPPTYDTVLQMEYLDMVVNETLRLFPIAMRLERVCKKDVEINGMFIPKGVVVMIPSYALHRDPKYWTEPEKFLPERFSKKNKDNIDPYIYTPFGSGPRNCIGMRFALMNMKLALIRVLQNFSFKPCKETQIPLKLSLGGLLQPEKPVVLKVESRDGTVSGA
T5 sequence (P11712 whole entry): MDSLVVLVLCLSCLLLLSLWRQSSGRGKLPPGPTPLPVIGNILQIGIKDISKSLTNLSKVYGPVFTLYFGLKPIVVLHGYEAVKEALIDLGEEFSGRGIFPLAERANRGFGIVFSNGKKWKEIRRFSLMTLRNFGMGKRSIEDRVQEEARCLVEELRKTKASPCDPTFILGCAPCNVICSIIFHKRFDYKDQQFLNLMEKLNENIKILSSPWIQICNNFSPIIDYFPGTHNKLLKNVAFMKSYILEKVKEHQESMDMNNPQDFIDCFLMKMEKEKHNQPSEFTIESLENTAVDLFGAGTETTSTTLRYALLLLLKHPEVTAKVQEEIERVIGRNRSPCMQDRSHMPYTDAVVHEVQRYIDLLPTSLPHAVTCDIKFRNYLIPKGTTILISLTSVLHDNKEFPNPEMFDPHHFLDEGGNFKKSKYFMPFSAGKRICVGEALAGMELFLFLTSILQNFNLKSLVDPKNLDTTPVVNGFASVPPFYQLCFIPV
T3 sequence (P10635 whole entry): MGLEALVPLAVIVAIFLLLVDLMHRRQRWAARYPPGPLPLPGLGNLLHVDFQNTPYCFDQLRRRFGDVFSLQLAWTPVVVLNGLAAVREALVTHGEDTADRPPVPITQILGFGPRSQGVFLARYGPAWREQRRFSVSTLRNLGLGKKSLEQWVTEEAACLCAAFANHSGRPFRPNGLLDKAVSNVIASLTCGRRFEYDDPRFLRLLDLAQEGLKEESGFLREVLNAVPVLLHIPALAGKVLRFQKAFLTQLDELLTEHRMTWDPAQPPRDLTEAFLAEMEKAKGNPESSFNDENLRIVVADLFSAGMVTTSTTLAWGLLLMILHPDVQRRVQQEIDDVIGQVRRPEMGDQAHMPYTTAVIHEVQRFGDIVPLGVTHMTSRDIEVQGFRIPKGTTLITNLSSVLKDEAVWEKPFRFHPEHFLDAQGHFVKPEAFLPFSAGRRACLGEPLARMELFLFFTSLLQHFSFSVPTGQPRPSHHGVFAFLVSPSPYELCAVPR

Row | Structure (SMILES) | IC50 (BACE1) | further results
1 | Cc1cc(Cl)cc(-c2cccc(C3(C)COCC(N)=N3)c2)c1 (stereo not shown) [Example 9, 5-(3′-Chloro-5′-methyl-biphenyl-3-yl)-5-methyl-5,6-dihydro-2H-[1,4]oxazin-3-ylamine] | 2480 nM | IC50 (BACE2): 1110 nM
2 | CC1(c2cccc(-c3cncnc3)c2)COCC(N)=N1 (stereo not shown) [Example 35, 5-Methyl-5-(3-pyrimidin-5-yl-phenyl)-5,6-dihydro-2H-[1,4]oxazin-3-ylamine] |  | IC50 (CYP2D6): 18000 nM; IC50 (CYP3A4): > 50000 nM; IC50 (CYP2C9): > 50000 nM
3 | C[C@@]1(c2cc(-c3cc(Cl)cc(Cl)c3)ccc2F)COCC(N)=N1 [Example 37, (R)-5-(3′,5′-Dichloro-4-fluoro-biphenyl-3-yl)-5-methyl-5,6-dihydro-2H-[1,4]oxazin-3-ylamine] | 510 nM | IC50 (BACE2): 120 nM
4 | Cc1cc(C2(c3cccc(-c4cccnc4)c3)COCC(N)=N2)ccc1OC(F)F (stereo not shown) [Example 44, 5-(4-Difluoromethoxy-3-methyl-phenyl)-5-(3-pyridin-3-yl-phenyl)-5,6-dihydro-2H-[1,4]oxazin-3-ylamine] | 60 nM | 
5 | Cc1cc(C2(c3cccc(-c4ccc(Cl)nc4)c3)COCC(N)=N2)ccc1OC(F)F (stereo not shown) [Example 45, 5-[3-(6-Chloro-pyridin-3-yl)-phenyl]-5-(4-difluoromethoxy-3-methyl-phenyl)-5,6-dihydro-2H-[1,4]oxazin-3-ylamine] | 360 nM | 
6 | Cc1cc(C2(c3cccc(-c4cncc(Cl)c4)c3)COCC(N)=N2)ccc1OC(F)F (stereo not shown) [Example 46, 5-[3-(5-Chloro-pyridin-3-yl)-phenyl]-5-(4-difluoromethoxy-3-methyl-phenyl)-5,6-dihydro-2H-[1,4]oxazin-3-ylamine] | 40 nM | IC50 (BACE2): 30 nM
7 | NC1=NC(c2ccc(OC(F)F)nc2)(c2cccc(-c3cncc(Cl)c3)c2)COC1 (stereo not shown) [Example 47, 5-[3-(5-Chloro-pyridin-3-yl)-phenyl]-5-(6-difluoromethoxy-pyridin-3-yl)-5,6-dihydro-2H-[1,4]oxazin-3-ylamine] | 110 nM | 
8 | COc1cncc(-c2cccc(C3(c4ccc(OC(F)F)nc4)COCC(N)=N3)c2)c1 (stereo not shown) [Example 48, 5-(6-Difluoromethoxy-pyridin-3-yl)-5-[3-(5-methoxy-pyridin-3-yl)-phenyl]-5,6-dihydro-2H-[1,4]oxazin-3-ylamine] | 30 nM | 
9 | CC1(c2cccc(-c3nc4ccc(Cl)cc4o3)c2)COCC(N)=N1 (stereo not shown) [Example 49, 5-[3-(6-Chloro-benzooxazol-2-yl)-phenyl]-5-methyl-5,6-dihydro-2H-[1,4]oxazin-3-ylamine] | 200 nM | IC50 (BACE2): 200 nM
10 | CC1(c2cccc(-c3nc4cc(Cl)ccc4[nH]3)c2)COCC(N)=N1 (stereo not shown) [Example 50, 5-[3-(5-Chloro-1H-benzoimidazol-2-yl)-phenyl]-5-methyl-5,6-dihydro-2H-[1,4]oxazin-3-ylamine] | 1280 nM | 
11 | NC1=NC(c2cc(-c3cncnc3)ccc2F)(C(F)F)COC1 (stereo not shown) [Example 51, 5-Difluoromethyl-5-(2-fluoro-5-pyrimidin-5-yl-phenyl)-5,6-dihydro-2H-[1,4]oxazin-3-ylamine] | 770 nM | 
12 | NC1=NC(c2cc(-c3cncc(Cl)c3)ccc2F)(C(F)F)COC1 (stereo not shown) [Example 52, 5-[5-(5-Chloro-pyridin-3-yl)-2-fluoro-phenyl]-5-difluoromethyl-5,6-dihydro-2H-[1,4]oxazin-3-ylamine] | 280 nM | 
13 | CC1(c2cccc(-c3nc4cc(Cl)ccc4o3)c2)COCC(N)=N1 (stereo not shown) [Example 53, 5-[3-(5-Chloro-benzooxazol-2-yl)-phenyl]-5-methyl-5,6-dihydro-2H-[1,4]oxazin-3-ylamine] | 1490 nM | 
14 | CC1(c2cccc(C#Cc3ccccc3)c2)COCC(N)=N1 (stereo not shown) [Example 54, 5-Methyl-5-(3-phenylethynyl-phenyl)-5,6-dihydro-2H-[1,4]oxazin-3-ylamine] | 1470 nM | 
15 | CC1(c2cccc(C#Cc3ccsc3)c2)COCC(N)=N1 (stereo not shown) [Example 55, 5-Methyl-5-(3-thiophen-3-ylethynyl-phenyl)-5,6-dihydro-2H-[1,4]oxazin-3-ylamine] | 2780 nM | 
16 | COc1cc(-c2cccc(C3(C)COCC(N)=N3)c2)cc(F)c1F (stereo not shown) [Example 56, 5-(4′,5′-Difluoro-3′-methoxy-biphenyl-3-yl)-5-methyl-5,6-dihydro-2H-[1,4]oxazin-3-ylamine formate] | 2550 nM | 
17 | CC1(c2cccc(-c3cc(C(F)(F)F)cc(C(F)(F)F)c3)c2)COCC(N)=N1 (stereo not shown) [Example 57, 5-(3′,5′-Bis-trifluoromethyl-biphenyl-3-yl)-5-methyl-5,6-dihydro-2H-[1,4]oxazin-3-ylamine formate] | 6720 nM | 
18 | CC1(c2cccc(-c3ccc(F)c(OCC(F)(F)F)c3)c2)COCC(N)=N1 (stereo not shown) [Example 58, 5-[4′-Fluoro-3′-(2,2,2-trifluoro-ethoxy)-biphenyl-3-yl]-5-methyl-5,6-dihydro-2H-[1,4]oxazin-3-ylamine formate] | 8340 nM | 
19 | COc1ccc2ccc(-c3cccc(C4(C)COCC(N)=N4)c3)cc2c1 (stereo not shown) [Example 59, 5-[3-(7-Methoxy-naphthalen-2-yl)-phenyl]-5-methyl-5,6-dihydro-2H-[1,4]oxazin-3-ylamine formate] | 4390 nM | 
